From ChEMBL document CHEMBL3399924, “Indirubin 3'-(O-oxiran-2-ylmethyl)oxime: a novel anticancer agent” (Bioorg Med Chem Lett, 2015) come the findings set out here.

The subject of data set [1] is HepG2. In words: Antiproliferative activity against human HepG2 cells assessed cell survival after 24 hrs by alamarBlue assay. Type of data set: functional, cell-based. For orientation: Resazurin is reduced to fluorescent resorufin, in cell work by metabolically active cells.
For data set [2], the system named is HepG2. In words: Cytotoxicity against human HepG2 cells assessed cell death after 72 hrs at 2 uM by alamarBlue assay relative to control. Type of data set: functional. The conditions noted are these: HepG2, 72 h.
The subject of data set [3] is HepG2. In words: Cytotoxicity against human HepG2 cells assessed cell death after 24 hrs at 1 uM by alamarBlue assay relative to control. Type of data set: functional. The conditions noted are these: HepG2, 24 h.
Data set [4] is described as follows: Retention time of the compound by HPLC chromatogram. The class given is physicochemical.
Data set [5] has as its system HepG2. The experiment in a line: Cytotoxicity against human HepG2 cells assessed cell survival rate after 24 hrs at 2 uM by alamarBlue assay relative to control. Type of data set: functional.
For data set [6], the system named is HepG2. The experiment in a line: Cytotoxicity against human HepG2 cells assessed cell survival rate after 72 hrs at 2 uM by alamarBlue assay relative to control. Type of data set: functional.
The test system of data set [7] is HepG2. The experiment in a line: Cytotoxicity against human HepG2 cells assessed cell death after 72 hrs at 3 uM by alamarBlue assay relative to control. Type of data set: functional. The conditions noted are these: HepG2, 72 h.
The subject of data set [8] is HepG2. In words: Drug metabolisam in human HepG2 cells assessed as indirubin 3'-(O-2,3-dihydroxypropyl)oxime formation at 1 uM by mass spectrometry. Type of data set: ADME, cell-based. The conditions noted are these: hepg2, 1 µM.
The test system of data set [9] is HepG2. In words: Cytotoxicity against human HepG2 cells assessed cell death after 72 hrs by alamarBlue assay relative to control. The class given is functional, cell-based. The following applies: HepG2, 72 h.
Data set [10] deals with HepG2. The experiment in a line: Drug formation in human HepG2 cells treated at 1 uM Epox/Ind by mass spectrometry. The class given is ADME, cell-based. The following applies: hepg2, 1 µM.
The test system of data set [11] is HepG2. The experiment in a line: Cytotoxicity against human HepG2 cells assessed cell survival after 24 hrs at 10 uM by alamarBlue assay. Type of data set: functional, cell-based.
The mark [12] stands for this setting: Homo sapiens, HepG2, 24 h, read-out: IC50.

SMILES strings stand for the structures. Calls of active or inactive are those of the source. No cut-off for these calls is given here.

For `O=C1Nc2ccccc2/C1=C1/Nc2ccccc2/C1=N\O`, in the data set with HepG2 [1] (setting [12]), the IC50 (commonly the point on the concentration scale where inhibition reaches its midpoint) is 15 µM.
As to `O=C1Nc2ccccc2/C1=C1/Nc2ccccc2/C1=N\OCC1CO1` (stereo not drawn), the inhibition (as a rule, the share of the control response that was lost under treatment) at 2 µM with HepG2 [2] is 31%. For the same molecule, the inhibition at 1 µM in the data set with HepG2 [3] came to 25%. Further, the IC50 was 1.7 µM with HepG2 [1] (setting [12]) and 2.3 µM in the data set on HepG2 [9]. The Retention_time in data set [4] is 4.3 min. Further, the Activity with HepG2 [5] is on record as 69%; in the data set on HepG2 [6], 44%. In addition, the inhibition at 3 µM with HepG2 [7] stood at 89%. Also, the Drug metabolism result in the data set on HepG2 [8] is given as “metabolite_detected”.
`O=C1Nc2ccccc2/C1=C1/Nc2ccccc2/C1=N\OCC(O)CO` (stereo not drawn) came in with an inhibition at 2 µM in the data set with HepG2 [2] of 15%. Moreover, the values for the half-inhibitory concentration (IC50) in the data set with HepG2 [1] (setting [12]) and with HepG2 [9] were 2.1 µM and 2.8 µM, respectively. For the same molecule, the Retention_time in data set [4] is given as 3.392 min. In addition, the inhibition at 3 µM in the data set with HepG2 [7] stood at 58%. Moreover, in the data set on HepG2 [10], the Drug metabolism result is on record as “metabolite_detected”.
On to `O=C1Nc2ccccc2/C1=N\OCC1CO1` (stereo not drawn), for which, in the data set on HepG2 [11], the outcome was inactive.
`O=C1Nc2ccccc2/C1=C1/Nc2ccccc2C1=O` [INDIRUBIN]: the IC50 entry in the data set on HepG2 [1] (hepg2) is reported as “Not Active”.
